From patent US4430331A, “Antiarrhytmic benzylimidazole” (Shionogi & Co., Ltd., priority 1981, dated 1984)

What was measured:
[1] = tested on: atrium dextrum specimens; test: Antiarrhythmic activity (cardiomuscular action to the maximal stimulus frequency); parameters: species or system guinea-pigs; conditions: isolated guinea-pig atrium dextrum, Krebs-Ringer-sodium carbonate solution, 30° C., after 10 minutes treatment with test compound
Procedure: (a) Antiarrhythmic activity (cardiomuscular action to the maximal stimulus frequency) A certain number of atrium dextrum specimens were made by extracting the heart from male and female guinea-pigs weighing on average 350 to 600 g, and then suspended and fixed in a glass vessel filled with Krebs-Ringer-sodium carbonate solution (30° C.) in which a mixture of 95% oxygen and 5% carbon dioxide was continuously introduced. The automatism of the specimens was recorded on the oscillograph. Maximal stimulus frequency was confirmed by affording a stimulus of the atrium dextrum from the exciting electrode equipped to a retainer. After previously treating with a test compound for 10 minutes, the reducing percent (%) of the maximal stimulus frequency was calculated by observing the reduction of the maximal frequency [[…].: Brit. […]., 1, 90 (1946)].

[2] = tested on: SLC-DDY male mice; test: in vivo; assay type: in vivo; conditions: LD50, up and down method, into tail venae (intravenous), SLC-DDY male mice 25 to 35 g
Text: (§1) Lethal dose was obtained by administering a test compound in the form of a physiological brine solution into the tail venae of SLC-DDY male mice weighing from 25 to 35 g and calculating the value of LD50 by the up and down method [Brownlee, K. A. et al.: J. Am. Stat. As., 48, 262 (1953)].

[3] = in vivo; assay type: in vivo; conditions: mouse, in vivo; LD50, up and down method, into tail venae (intravenous), SLC-DDY male mice 25 to 35 g; read-out: Acute toxicity (LD50)
Text: as §1

SMILES	Reducing percent (%) of Maximal stimulus frequency [1]	Acute toxicity (LD50) [2]	LD50 [3]
C=C(c1ccccc1OCC(O)CNC(C)(C)C)n1cccn1 (stereo not shown) [Example 25]	39.2%	22.3 mg/kg	–
C=C(c1c(Cl)ccc(Cl)c1OCC(O)CNC(C)C)n1ccnc1 (stereo not shown) [Example 7]	38.1%	19.8 mg/kg	–
C=C(c1ccccc1OCC(O)CNC(C)C)n1cncn1 (stereo not shown) [Example 31]	42.8%	36.4 mg/kg	–
C=C(c1ccccc1OCC(O)CNC(C)C)n1cnc(C(=O)OCC)c1C (stereo not shown) [Example 17]	31.7%	–	36.4 mg/kg
C=C(c1ccc(Cl)c(Cl)c1OCC(O)CNC(C)C)n1ccnc1 (stereo not shown) [Example 26]	35.8%	33.9 mg/kg	–
C=C(c1c(C)ccc(Cl)c1OCC(O)CNC(C)C)n1ccnc1 (stereo not shown) [Example 30]	50.6%	28.5 mg/kg	–
C=C[C@H]1C[N@@]2CC[C@H]1C[C@@H]2[C@@H](O)c1ccnc2ccc(OC)cc12 [Quinidine, reference compound]	22.8%	–	–
C=C(c1c(Cl)ccc(Cl)c1OCC(O)CNCC(C)C)n1ccnc1 (stereo not shown) [Example 13]	34.5%	15.5 mg/kg	–
C=C(c1ccccc1OCC(O)CNC(C)C)n1cnc(C)c1 (stereo not shown) [Example 24]	36.1%	36.4 mg/kg	–
C=C(c1ccccc1OCC(O)CNC(C)(C)C)n1cnc2ccccc21 (stereo not shown) [Example 22]	35.8%	26.5 mg/kg	–
